Test results as given in patent publication US11173151B2, “Substituted triazole derivatives and uses thereof” (BAYER AKTIENGESELLSCHAFT, priority 2017, dated 2021).

Assays:
[1] = molecular target: T1, human V1a receptor (Homo sapiens, UniProt P37288); assay: Cellular in vitro assay for determining vasopressin receptor activity, V1a receptor cell line (CHO, aequorin luminescence); type: cell-based; conditions: for IC50: CHO cell line transfected with human V1a receptor, [Arg]-vasopressin at EC50 concentration, read-out: IC50 hV1a; for ratio IC50 hV2/hV1a: selectivity ratio IC50 hV2 / IC50 hV1a
T1 construct: expressed in transfected cells; host or cells: CHO K1 (ATCC), also stably transfected with a modified aequorin
Outline: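 Cells were plated the day before in medium containing 5 μg/ml coelenterazine and kept at 37° C. Compounds at various concentrations were then added for 10 minutes. Next, [Arg]-vasopressin at EC50 was applied and light output recorded at once, yielding IC50.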

[2] = molecular target: T2, human V2 receptor (Homo sapiens, UniProt P30518); assay: Cellular in vitro assay for determining vasopressin receptor activity, V2 receptor cell line (CHO, CRE-luciferase); type: cell-based; conditions: CHO cell line transfected with human V2 receptor; [Arg8]-vasopressin at EC50 concentration, 3 hours; read-out: IC50 hV2
T2 construct: expressed in transfected cells; host or cells: CHO K1 (ATCC) expressing firefly luciferase under a CRE-responsive promoter
T2 sequence (P30518 whole entry): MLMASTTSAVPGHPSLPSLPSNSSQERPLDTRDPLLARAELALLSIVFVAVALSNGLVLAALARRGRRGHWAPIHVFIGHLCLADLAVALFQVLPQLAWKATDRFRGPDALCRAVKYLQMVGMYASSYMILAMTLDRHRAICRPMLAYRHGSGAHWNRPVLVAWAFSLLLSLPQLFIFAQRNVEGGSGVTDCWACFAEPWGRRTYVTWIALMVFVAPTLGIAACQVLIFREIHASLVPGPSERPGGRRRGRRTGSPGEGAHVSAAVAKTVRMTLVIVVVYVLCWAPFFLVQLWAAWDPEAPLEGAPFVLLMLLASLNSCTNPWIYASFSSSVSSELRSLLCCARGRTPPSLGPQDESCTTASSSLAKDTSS

T1 sequence (P37288 whole entry): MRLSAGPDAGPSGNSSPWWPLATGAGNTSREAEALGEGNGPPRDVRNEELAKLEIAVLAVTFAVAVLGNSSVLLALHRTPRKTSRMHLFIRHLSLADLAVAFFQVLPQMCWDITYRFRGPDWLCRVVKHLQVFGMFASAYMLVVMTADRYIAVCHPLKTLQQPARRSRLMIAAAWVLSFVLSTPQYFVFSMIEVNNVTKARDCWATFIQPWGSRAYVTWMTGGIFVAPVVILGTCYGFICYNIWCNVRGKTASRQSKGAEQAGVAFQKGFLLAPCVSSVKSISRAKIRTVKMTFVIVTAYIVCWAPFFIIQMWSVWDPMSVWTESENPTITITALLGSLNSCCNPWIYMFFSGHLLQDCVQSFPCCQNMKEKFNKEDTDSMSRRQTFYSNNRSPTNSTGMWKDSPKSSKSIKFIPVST

IC50 [1] [nM] | ratio IC50 hV2/hV1a [1] | IC50 [2] [nM] | Compound
28.5 | 108.8 | 3100 | O=C(NCC1CS(=O)(=O)C1)c1ccccc1-n1cnc(Cn2nc(-c3ccc(Cl)cc3)n(C[C@H](O)C(F)(F)F)c2=O)n1 [Example 184, 2-[3-({3-(4-Chlorophenyl)-5-oxo-4-[(2S)-3,3,3-trifluoro-2-hydroxypropyl]-4,5-dihydro-1H-1,2,4-triazol-1-yl}methyl)-1H-1,2,4-triazol-1-yl]-N-[(1,1-dioxidothietan-3-yl)methyl]benzamide]
9 | 199.4 | 1800 | O=C(NCCN1CCNC1=O)c1ccccc1-n1cnc(Cn2nc(-c3ccc(Cl)cc3)n(C[C@H](O)C(F)(F)F)c2=O)n1 [Example 185, 2-[3-({3-(4-Chlorophenyl)-5-oxo-4-[(2S)-3,3,3-trifluoro-2-hydroxypropyl]-4,5-dihydro-1H-1,2,4-triazol-1-yl}methyl)-1H-1,2,4-triazol-1-yl]-N-[2-(2-oxoimidazolidin-1-yl)ethyl]benzamide]
5.25 | 46.2 | 243 | CC(C)(N)CNC(=O)c1cc(Cl)ccc1-n1cnc(Cn2nc(-c3ccc(Cl)cc3)n(C[C@H](O)C(F)(F)F)c2=O)n1 [Example 186, N-(2-Amino-2-methylpropyl)-5-chloro-2-[3-({3-(4-chlorophenyl)-5-oxo-4-[(2S)-3,3,3-trifluoro-2-hydroxypropyl]-4,5-dihydro-1H-1,2,4-triazol-1-yl}methyl)-1H-1,2,4-triazol-1-yl]benzamide]
12.3 | 3.9 | 48.5 | CNC(=O)c1cc(Cl)ccc1-n1cnc(Cn2nc(-c3ccc(Cl)cc3)n(C[C@H](O)C(F)(F)F)c2=O)n1 [Example 187, 5-chloro-2-[3-({3-(4-Chlorophenyl)-5-oxo-4-[(2S)-3,3,3-trifluoro-2-hydroxypropyl]-4,5-dihydro-1H-1,2,4-triazol-1-yl}methyl)-1H-1,2,4-triazol-1-yl]-N-methylbenzamide]
6.83 | 83.2 | 568 | CC1(CNC(=O)c2ccccc2-n2cnc(Cn3nc(-c4ccc(Cl)cc4)n(C[C@H](O)C(F)(F)F)c3=O)n2)COC1 [Example 188, 2-[3-({3-(4-Chlorophenyl)-5-oxo-4-[(2S)-3,3,3-trifluoro-2-hydroxypropyl]-4,5-dihydro-1H-1,2,4-triazol-1-yl}ylmethyl)-1H-1,2,4-triazol-1-yl]-N-[(3-methyloxetan-3-yl)methyl]benzamide]
60.8 | 60.1 | 3650 | NC(=O)C1CN(C(=O)c2ccccc2-n2cnc(Cn3nc(-c4ccc(Cl)cc4)n(C[C@H](O)C(F)(F)F)c3=O)n2)C1 [Example 189, 1-{2-[3-({3-(4-Chlorophenyl)-5-oxo-4-[(2S)-3,3,3-trifluoro-2-hydroxypropyl]-4,5-dihydro-1H-1,2,4-triazol-1-yl}methyl)-1H-1,2,4-triazol-1-yl]benzoyl}azetidine-3-carboxamide]
300 | 23.5 | 7050 | O=C1NCC2(CN(C(=O)c3ccccc3-n3cnc(Cn4nc(-c5ccc(Cl)cc5)n(C[C@H](O)C(F)(F)F)c4=O)n3)C2)N1 [Example 190, 2-{2-[3-({3-(4-Chlorophenyl)-5-oxo-4-[(2S)-3,3,3-trifluoro-2-hydroxypropyl]-4,5-dihydro-1H-1,2,4-triazol-1-yl}methyl)-1H-1,2,4-triazol-1-yl]benzoyl}-2,5,7-triazaspiro[3.4]octan-6-one]
63.5 | 46.5 | 2950 | NC(=O)[C@H]1CCCN1C(=O)c1ccccc1-n1cnc(Cn2nc(-c3ccc(Cl)cc3)n(C[C@H](O)C(F)(F)F)c2=O)n1 [Example 194, 1-{2-[3-({3-(4-Chlorophenyl)-5-oxo-4-[(2S)-3,3,3-trifluoro-2-hydroxypropyl]-4,5-dihydro-1H-1,2,4-triazol-1-yl}methyl)-1H-1,2,4-triazol-1-yl]benzoyl}-D-prolinamide]
104 | 23.0 | 2390 | NC(=O)[C@@H]1CCCN1C(=O)c1ccccc1-n1cnc(Cn2nc(-c3ccc(Cl)cc3)n(C[C@H](O)C(F)(F)F)c2=O)n1 [Example 195, 1-{2-[3-({3-(4-Chlorophenyl)-5-oxo-4-[(2S)-3,3,3-trifluoro-2-hydroxypropyl]-4,5-dihydro-1H-1,2,4-triazol-1-yl}methyl)-1H-1,2,4-triazol-1-yl]benzoyl}-L-prolinamide]
49.5 | 140.4 | 6950 | NC(=O)[C@@H]1CC(F)(F)CN1C(=O)c1ccccc1-n1cnc(Cn2nc(-c3ccc(Cl)cc3)n(C[C@H](O)C(F)(F)F)c2=O)n1 [Example 197, 1-{2-[3-({3-(4-Chlorophenyl)-5-oxo-4-[(2S)-3,3,3-trifluoro-2-hydroxypropyl]-4,5-dihydro-1H-1,2,4-triazol-1-yl}methyl)-1H-1,2,4-triazol-1-yl]benzoyl}-4,4-difluoro-L-prolinamide]
22 | 245.5 | 5400 | NC(=O)[C@H]1CC(F)(F)CN1C(=O)c1ccccc1-n1cnc(Cn2nc(-c3ccc(Cl)cc3)n(C[C@H](O)C(F)(F)F)c2=O)n1 [Example 198, 1-{2-[3-({3-(4-Chlorophenyl)-5-oxo-4-[(2S)-3,3,3-trifluoro-2-hydroxypropyl]-4,5-dihydro-1H-1,2,4-triazol-1-yl}methyl)-1H-1,2,4-triazol-1-yl]benzoyl}-4,4-difluoro-D-prolinamide]
36.5 | 66.4 | 2420 | NC(=O)[C@@H]1CCN(C(=O)c2ccccc2-n2cnc(Cn3nc(-c4ccc(Cl)cc4)n(C[C@H](O)C(F)(F)F)c3=O)n2)C1 [Example 199, (3R)-1-{2-[3-({3-(4-Chlorophenyl)-5-oxo-4-[(2S)-3,3,3-trifluoro-2-hydroxypropyl]-4,5-dihydro-1H-1,2,4-triazol-1-yl}methyl)-1H-1,2,4-triazol-1-yl]benzoyl}pyrrolidine-3-carboxamide]
11.2 | 153.3 | 1730 | NC(=O)[C@H]1CCN(C(=O)c2ccccc2-n2cnc(Cn3nc(-c4ccc(Cl)cc4)n(C[C@H](O)C(F)(F)F)c3=O)n2)C1 [Example 200, (3S)-1-{2-[3-({3-(4-Chlorophenyl)-5-oxo-4-[(2S)-3,3,3-trifluoro-2-hydroxypropyl]-4,5-dihydro-1H-1,2,4-triazol-1-yl}methyl)-1H-1,2,4-triazol-1-yl]benzoyl}pyrrolidine-3-carboxamide]
1.2 | 3125.0 | 3750 | CC1=NN=C(C)C1NC(=O)c1ccccc1-n1cnc(Cn2nc(-c3ccc(Cl)cc3)n(C[C@H](O)C(F)(F)F)c2=O)n1 [Example 201, 2-[3-({3-(4-Chlorophenyl)-5-oxo-4-[(2S)-3,3,3-trifluoro-2-hydroxypropyl]-4,5-dihydro-1H-1,2,4-triazol-1-yl}methyl)-1H-1,2,4-triazol-1-yl]-N-(3,5-dimethyl-4H-pyrazol-4-yl)benzamide]
8.35 | 26.9 | 225 | O=C(NCc1cccc(F)c1F)c1ccccc1-n1cnc(Cn2nc(-c3ccc(Cl)cc3)n(C[C@H](O)C(F)(F)F)c2=O)n1 [Example 203, 2-[3-({3-(4-Chlorophenyl)-5-oxo-4-[(2S)-3,3,3-trifluoro-2-hydroxypropyl]-4,5-dihydro-1H-1,2,4-triazol-1-yl}methyl)-1H-1,2,4-triazol-1-yl]-N-(2,3-difluorobenzyl)benzamide]
